Source: ChEMBL document CHEMBL1201862, “PubChem BioAssay data set” (2004)
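48-hour exposure; five concentrations; linearly interpolated endpoints. Here, GI50 denotes the concentration required for 50% inhibition of growth.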 Calls of active or inactive are those of the source. Cut-off read from the data, not from the text of the source: active = GI50 up to about 1.1 µM and inactive = higher.

Assays:
Assay in all cases: growth of human tumour cells (NCI), 48 h
786-0 = tested on: 786-0
A549 = tested on: A549
ACHN = tested on: ACHN
BT-549 = tested on: BT-549
CAKI-1 = tested on: CAKI-1
CCRF-CEM = tested on: CCRF-CEM
COLO 205 = tested on: COLO 205
DU-145 = tested on: DU-145
HCC 2998 = tested on: HCC 2998
HCT-116 = tested on: HCT-116
HCT-15 = tested on: HCT-15
HL-60 = tested on: HL-60
HOP-62 = tested on: HOP-62
HOP-92 = tested on: HOP-92
HT-29 = tested on: HT-29
Hs-578T = tested on: Hs-578T
IGROV-1 = tested on: IGROV-1
K562 = tested on: K562
KM12 = tested on: KM12
LOX IMVI = tested on: LOX IMVI
M14 = tested on: M14
MCF7 = tested on: MCF7
MDA-MB-231 = tested on: MDA-MB-231
MDA-MB-435 = tested on: MDA-MB-435
MDA-N = tested on: MDA-N
MOLT-4 = tested on: MOLT-4
Malme-3M = tested on: Malme-3M
NCI-H23 = tested on: NCI-H23
NCI-H460 = tested on: NCI-H460
NCI/ADR-RES = tested on: NCI/ADR-RES
OVCAR-3 = tested on: OVCAR-3
OVCAR-4 = tested on: OVCAR-4
OVCAR-5 = tested on: OVCAR-5
PC-3 = tested on: PC-3
RPMI-8226 = tested on: RPMI-8226
RXF 393 = tested on: RXF 393
SF-268 = tested on: SF-268
SF-295 = tested on: SF-295
SF-539 = tested on: SF-539
SK-MEL-28 = tested on: SK-MEL-28
SK-MEL-2 = tested on: SK-MEL-2
SK-MEL-5 = tested on: SK-MEL-5
SK-OV-3 = tested on: SK-OV-3
SN12C = tested on: SN12C
SNB-19 = tested on: SNB-19
SNB-75 = tested on: SNB-75
SR = tested on: SR
SW-620 = tested on: SW-620
T47D = tested on: T47D
TK-10 = tested on: TK-10
U-251 = tested on: U-251
UACC-257 = tested on: UACC-257
UACC-62 = tested on: UACC-62
UO-31 = tested on: UO-31
A498 = tested on: A498
EKVX = tested on: EKVX
NCI-H226 = tested on: NCI-H226
OVCAR-8 = tested on: OVCAR-8

In the case of Cc1ccc(/N=N/c2c(C)c(C#N)c(=S)n(C3OC(CO)C(O)C(O)C3O)c2C)cc1 (stereo not drawn), the GI50 (786-0) is reported as 28.4 µM (inactive), the GI50 (A549) is reported as 40.6 µM (inactive) and the GI50 (ACHN) is reported as 34 µM (inactive). For the same compound, the GI50 (BT-549) was 26.2 µM (inactive), the GI50 (CAKI-1) was 37.2 µM (inactive) and the GI50 (CCRF-CEM) was 20 µM (inactive). For the same compound, the GI50 (COLO 205) was 38.7 µM (inactive), the GI50 (DU-145) was 53.1 µM (inactive) and the GI50 (HCC 2998) was 21.7 µM (inactive). For the same compound, the GI50 (HCT-116) was 25.8 µM (inactive), the GI50 (HCT-15) was 39 µM and the GI50 (HL-60) was 59.6 µM (inactive). The GI50 (HOP-62) was 34.3 µM (inactive), the GI50 (HOP-92) was 11.7 µM (inactive) and the GI50 (HT-29) was 30.9 µM (inactive). For the same compound, the GI50 (Hs-578T) was 17 µM (inactive), the GI50 (IGROV-1) was 38.9 µM (inactive) and the GI50 (K562) was 18.4 µM (inactive). The GI50 (KM12) was 41.1 µM (inactive), the GI50 (LOX IMVI) was 18.2 µM (inactive) and the GI50 (M14) was 20.4 µM (inactive). For the same compound, the GI50 (MCF7) was 35.6 µM (inactive), the GI50 (MDA-MB-231) was 24.4 µM (inactive) and the GI50 (MDA-MB-435) was 24.6 µM (inactive). The GI50 (MDA-N) was 36.4 µM (inactive), the GI50 (MOLT-4) was 12.9 µM (inactive) and the GI50 (Malme-3M) was 21.7 µM (inactive). The GI50 (NCI-H23) was 32.1 µM (inactive), the GI50 (NCI-H460) was 23.7 µM (inactive) and the GI50 (NCI/ADR-RES) was 30.5 µM (inactive). For the same compound, the GI50 (OVCAR-3) was 29.6 µM (inactive), the GI50 (OVCAR-4) was 34.4 µM (inactive) and the GI50 (OVCAR-5) was 38.3 µM (inactive). The GI50 (PC-3) was 28.2 µM (inactive), the GI50 (RPMI-8226) was 46 µM (inactive) and the GI50 (RXF 393) was 26.1 µM (inactive). For the same compound, the GI50 (SF-268) was 50.1 µM (inactive), the GI50 (SF-295) was 36.3 µM (inactive) and the GI50 (SF-539) was 40.9 µM (inactive). For the same compound, the GI50 (SK-MEL-28) was 22.1 µM (inactive), the GI50 (SK-MEL-2) was 30.6 µM (inactive) and the GI50 (SK-MEL-5) was 17.4 µM (inactive). For the same compound, the GI50 (SK-OV-3) was 34.7 µM (inactive), the GI50 (SN12C) was 28.2 µM (inactive) and the GI50 (SNB-19) was 27.7 µM (inactive). For the same compound, the GI50 (SNB-75) was 25.4 µM (inactive), the GI50 (SR) was 26 µM (inactive) and the GI50 (SW-620) was 16 µM (inactive). The GI50 (T47D) was 23.3 µM (inactive), the GI50 (TK-10) was 63.1 µM (inactive) and the GI50 (U-251) was 21.2 µM (inactive). For the same compound, the GI50 (UACC-257) was 63 µM (inactive), the GI50 (UACC-62) was 13.5 µM (inactive) and the GI50 (UO-31) was 37.5 µM (inactive).

For O=C(CC(=O)N(C(=O)/C=C\c1ccccc1)c1ccc(Cl)cc1)N1N=C(c2ccccc2)C(/N=N/c2cccc([N+](=O)[O-])c2)C1=O (stereo not drawn), the GI50 (786-0) was 3.35 µM (inactive), the GI50 (A498) was 6.03 µM (inactive) and the GI50 (A549) was 5.05 µM (inactive). For the same compound, the GI50 (ACHN) was 5.13 µM (inactive), the GI50 (BT-549) was 12.3 µM (inactive) and the GI50 (CAKI-1) was 10.7 µM (inactive). The GI50 (CCRF-CEM) was 1.36 µM (inactive), the GI50 (COLO 205) was 3.45 µM (inactive) and the GI50 (DU-145) was 13.3 µM (inactive). For the same compound, the GI50 (EKVX) was 16.9 µM (inactive), the GI50 (HCC 2998) was 3.87 µM (inactive) and the GI50 (HCT-116) was 3.37 µM (inactive). For the same compound, the GI50 (HCT-15) was 1.36 µM, the GI50 (HL-60) was 2.84 µM (inactive) and the GI50 (HOP-62) was 11.9 µM (inactive). For the same compound, the GI50 (HOP-92) was 51.4 µM (inactive), the GI50 (HT-29) was 2.42 µM (inactive) and the GI50 (Hs-578T) was 18.4 µM (inactive). The GI50 (IGROV-1) was 9.06 µM (inactive), the GI50 (K562) was 4.65 µM (inactive) and the GI50 (KM12) was 1.76 µM (inactive). For the same compound, the GI50 (LOX IMVI) was 2.98 µM (inactive), the GI50 (M14) was 7.08 µM (inactive) and the GI50 (MCF7) was 3.45 µM (inactive). The GI50 (MDA-MB-231) was 0.971 µM (active), the GI50 (MDA-MB-435) was 9.82 µM (inactive) and the GI50 (MDA-N) was 7.05 µM (inactive). For the same compound, the GI50 (MOLT-4) was 2.56 µM (inactive), the GI50 (Malme-3M) was 11.3 µM (inactive) and the GI50 (NCI-H226) was 13.2 µM (inactive). For the same compound, the GI50 (NCI-H23) was 8.28 µM (inactive), the GI50 (NCI-H460) was 3.63 µM (inactive) and the GI50 (NCI/ADR-RES) was 2.18 µM (inactive). For the same compound, the GI50 (OVCAR-3) was 2.36 µM (inactive), the GI50 (OVCAR-5) was 48.9 µM (inactive) and the GI50 (OVCAR-8) was 3.78 µM (inactive). For the same compound, the GI50 (PC-3) was 3.23 µM (inactive), the GI50 (RPMI-8226) was 3.35 µM (inactive) and the GI50 (RXF 393) was 10.3 µM (inactive). The GI50 (SF-268) was 4.23 µM (inactive), the GI50 (SF-295) was 5.25 µM (inactive) and the GI50 (SF-539) was 6.07 µM (inactive). The GI50 (SK-MEL-28) was 11.5 µM (inactive), the GI50 (SK-OV-3) was 6.32 µM (inactive) and the GI50 (SN12C) was 1.29 µM (inactive). For the same compound, the GI50 (SNB-19) was 13.9 µM (inactive), the GI50 (SNB-75) was 11.9 µM (inactive) and the GI50 (SR) was 1.57 µM (inactive). The GI50 (SW-620) was 2.32 µM (inactive), the GI50 (T47D) was 4.2 µM (inactive) and the GI50 (TK-10) was 7.89 µM (inactive). The GI50 (U-251) was 5.82 µM (inactive), the GI50 (UACC-62) was 3.09 µM (inactive) and the GI50 (UO-31) was > 100 µM (inactive).
